Experimental data published in patent US10172868B2, “Substituted quinazolines for inhibiting kinase activity” (NeuPharma, Inc., priority 2013, dated 2019).

Tests used:
EGFR (ErbB1) T790M L858R = EGFR (ErbB1) T790M L858R (Homo sapiens (Human), UniProt P00533, L858R/T790M); experiment: Z'-LYTE kinase inhibition assay, EGFR L858R/T790M; format: biochemical; details: for inhibition at 0.0137 µM: read-out: % inhibition against EGFR L858R/T790M (Compound at 0.0137 μM); for IC50: read-out: IC50 against EGFR L858R/T790M; for inhibition at 1 µM: read-out: % inhibition against EGFR L858R/T790M (Compound at 1 μM)
Sequence of EGFR (ErbB1) T790M L858R (P00533 25-1210 T790M/L858R): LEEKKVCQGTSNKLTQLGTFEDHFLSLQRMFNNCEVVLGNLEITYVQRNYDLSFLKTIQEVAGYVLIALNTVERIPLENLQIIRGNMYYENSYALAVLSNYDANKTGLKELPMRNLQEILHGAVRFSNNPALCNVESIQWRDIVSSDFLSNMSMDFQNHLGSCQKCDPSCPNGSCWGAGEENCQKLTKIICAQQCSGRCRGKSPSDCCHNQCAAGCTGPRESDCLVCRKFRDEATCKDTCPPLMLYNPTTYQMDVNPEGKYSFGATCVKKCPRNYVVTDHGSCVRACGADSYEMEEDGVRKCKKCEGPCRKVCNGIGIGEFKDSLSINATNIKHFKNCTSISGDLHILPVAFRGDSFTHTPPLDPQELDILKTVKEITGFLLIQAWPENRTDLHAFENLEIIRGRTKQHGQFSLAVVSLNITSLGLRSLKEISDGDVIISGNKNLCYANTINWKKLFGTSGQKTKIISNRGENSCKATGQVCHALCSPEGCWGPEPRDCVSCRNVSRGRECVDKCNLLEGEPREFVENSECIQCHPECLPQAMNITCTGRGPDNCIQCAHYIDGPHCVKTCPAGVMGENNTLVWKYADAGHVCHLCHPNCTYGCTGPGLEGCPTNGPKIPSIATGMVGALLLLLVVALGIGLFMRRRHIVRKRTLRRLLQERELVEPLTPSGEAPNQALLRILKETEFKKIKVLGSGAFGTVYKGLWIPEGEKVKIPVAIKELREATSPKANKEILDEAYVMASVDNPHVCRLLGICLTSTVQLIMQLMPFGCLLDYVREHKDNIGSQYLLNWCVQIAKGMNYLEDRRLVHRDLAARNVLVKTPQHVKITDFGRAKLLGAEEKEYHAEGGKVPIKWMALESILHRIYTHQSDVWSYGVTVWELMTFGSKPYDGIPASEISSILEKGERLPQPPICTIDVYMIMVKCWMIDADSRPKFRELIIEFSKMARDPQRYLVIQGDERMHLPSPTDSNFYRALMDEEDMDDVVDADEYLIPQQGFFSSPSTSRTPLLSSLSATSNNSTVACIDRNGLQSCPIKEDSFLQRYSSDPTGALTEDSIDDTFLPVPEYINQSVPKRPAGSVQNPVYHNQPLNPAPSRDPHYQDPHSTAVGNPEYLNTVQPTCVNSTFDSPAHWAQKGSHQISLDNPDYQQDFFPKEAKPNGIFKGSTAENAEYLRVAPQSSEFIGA
In short: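 Z'-LYTE FRET peptide assay at 1% DMSO, 10-point 3-fold titrations; kinase/peptide mix in 50 mM HEPES pH 6.5, 0.01% BRIJ-35, 10 mM MgCl2, 1 mM EGTA, 0.02% NaN3. Kinase reaction ran 60 min at room temperature, followed by 60 min development and a fluorescence read. IC50 derived from the concentration series.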

H3255 cells = experiment: Inhibition of cancer cell growth, MTT assay, H3255; details: Homo sapiens, NCI-H3255, 72 h, read-out: IC50 in H3255 cells
A431 cells = experiment: cells; details: Homo sapiens, A-431, 72 h, read-out: IC50 in A431 cells
Procedure: Taxol (as a positive control. Sigma) and compounds were dissolved in DMSO (Sigma), and the final concentration of DMSO in the medium was 1%. Tumor cells were plated in 96-well plates at densities of about 4000 cells/well of a 96-well plate and allowed to adhere/grow for 24 h. They were then treated with various concentrations of drug for 72 h, 3-(4,5-Dimethylthiazol-2-yl)-2,5-diphenyltetrazolium bromide (MTT, Sigma) was used to determine the number of viable cells at the time of compound addition and the number of cells remaining after 72 h compound exposure. The number of cells remaining after 72 h was compared to the number of viable cells at the time of compound addition by measuring the absorbance at 570 nm, allowing for the calculation of growth inhibition.
All concentrations of compounds were tested in triplicate and controls were averaged over 4 wells. IC50 was calculated by plotting the concentration of compound vs the percentage of inhibition in treated wells using GraphPad Prism 5.
The scale utilized in Tables 5 is as follows: +++ less than 100 nM; ++ between 100 nM and 500 nM; and + greater than 500 nM.

H1975 cells = experiment: Inhibition of cancer cell growth, MTT assay, H1975; details: Homo sapiens, NCI-H1975, 72 h, read-out: IC50 in H1975 cells
EGFR (ErbB1) = EGFR (ErbB1) (Homo sapiens (Human), UniProt P00533); experiment: Z'-LYTE kinase inhibition assay, EGFR; format: biochemical; details: for inhibition at 0.041 µM: read-out: % inhibition against EGFR (Compound at 0.041 μM); for inhibition at 1 µM: read-out: % inhibition against EGFR (Compound at 1 μM); for IC50: read-out: IC50 against EGFR
Sequence of EGFR (ErbB1) (P00533 25-1210): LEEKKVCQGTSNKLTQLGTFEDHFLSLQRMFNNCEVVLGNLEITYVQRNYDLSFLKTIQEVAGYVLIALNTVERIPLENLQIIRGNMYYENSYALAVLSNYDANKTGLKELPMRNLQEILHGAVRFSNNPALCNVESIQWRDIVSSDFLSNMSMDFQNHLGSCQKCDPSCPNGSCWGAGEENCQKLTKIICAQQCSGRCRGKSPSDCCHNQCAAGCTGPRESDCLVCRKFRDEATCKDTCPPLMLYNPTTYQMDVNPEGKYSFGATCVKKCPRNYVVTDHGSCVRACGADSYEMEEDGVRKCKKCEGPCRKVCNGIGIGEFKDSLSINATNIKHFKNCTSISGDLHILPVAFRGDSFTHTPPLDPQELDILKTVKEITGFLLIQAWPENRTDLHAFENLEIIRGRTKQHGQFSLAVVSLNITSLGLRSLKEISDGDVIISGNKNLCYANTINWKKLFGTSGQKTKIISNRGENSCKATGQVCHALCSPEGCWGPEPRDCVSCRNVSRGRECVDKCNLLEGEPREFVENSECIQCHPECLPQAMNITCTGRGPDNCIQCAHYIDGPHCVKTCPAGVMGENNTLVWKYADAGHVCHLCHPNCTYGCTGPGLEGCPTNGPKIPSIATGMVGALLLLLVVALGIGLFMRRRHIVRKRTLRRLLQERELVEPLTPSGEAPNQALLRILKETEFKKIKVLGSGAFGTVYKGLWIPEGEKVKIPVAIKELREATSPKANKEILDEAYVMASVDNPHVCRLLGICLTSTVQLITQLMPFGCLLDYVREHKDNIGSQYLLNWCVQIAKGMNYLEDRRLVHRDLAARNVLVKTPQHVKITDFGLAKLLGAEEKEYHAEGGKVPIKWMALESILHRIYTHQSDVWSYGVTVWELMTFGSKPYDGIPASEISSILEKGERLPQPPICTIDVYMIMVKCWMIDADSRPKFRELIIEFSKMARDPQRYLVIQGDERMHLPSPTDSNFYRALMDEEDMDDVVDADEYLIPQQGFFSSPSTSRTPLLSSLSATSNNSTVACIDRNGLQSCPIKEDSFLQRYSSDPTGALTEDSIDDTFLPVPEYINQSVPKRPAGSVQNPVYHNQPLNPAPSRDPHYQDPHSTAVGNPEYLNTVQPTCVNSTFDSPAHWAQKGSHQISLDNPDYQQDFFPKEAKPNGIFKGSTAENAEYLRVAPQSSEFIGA
In short: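 Z'-LYTE FRET assay run with 1.1-5.25 ng EGFR and 2 μM peptide substrate in 50 mM HEPES pH 7.5, 10 mM MgCl2, 2 mM MnCl2, 1 mM EGTA, 1 mM DTT, 0.01% BRIJ-35, 1% DMSO. Kinase reaction 60 min at room temperature, then 60 min development; IC50 from 10-point 3-fold titrations.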

HCC827 cells = experiment: cells; details: Homo sapiens, HCC827, 72 h, read-out: IC50 in HCC827 cells
BTK = BTK (Homo sapiens (Human), UniProt Q06187); experiment: Z'-LYTE kinase inhibition assay, BTK; format: biochemical; details: for IC50: read-out: IC50 against BTK
Sequence of BTK (Q06187 whole entry): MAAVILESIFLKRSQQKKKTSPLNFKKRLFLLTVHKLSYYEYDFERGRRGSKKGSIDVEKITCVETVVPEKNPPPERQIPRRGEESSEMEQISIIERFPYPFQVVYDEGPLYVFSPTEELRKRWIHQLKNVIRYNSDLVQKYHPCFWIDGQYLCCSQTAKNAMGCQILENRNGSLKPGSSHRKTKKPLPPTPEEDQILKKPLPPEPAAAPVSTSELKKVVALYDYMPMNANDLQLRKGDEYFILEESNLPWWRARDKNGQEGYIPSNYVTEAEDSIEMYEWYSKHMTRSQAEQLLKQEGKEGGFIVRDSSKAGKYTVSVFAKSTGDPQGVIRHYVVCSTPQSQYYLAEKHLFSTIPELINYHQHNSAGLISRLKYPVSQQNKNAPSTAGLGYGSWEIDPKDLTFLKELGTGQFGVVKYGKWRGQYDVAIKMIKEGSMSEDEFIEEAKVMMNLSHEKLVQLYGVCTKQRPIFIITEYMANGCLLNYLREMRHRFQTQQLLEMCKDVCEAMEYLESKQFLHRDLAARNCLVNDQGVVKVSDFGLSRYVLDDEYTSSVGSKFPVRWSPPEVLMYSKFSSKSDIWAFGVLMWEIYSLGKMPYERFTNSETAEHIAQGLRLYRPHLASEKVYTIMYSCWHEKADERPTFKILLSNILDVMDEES
Procedure: Inhibitory activities of compounds against BTK, EGFR and EGFR mutants (EGFR L858R, EGFR T790M, EGFR L858R/T790M), FGFR1, FGFR2, JAK2, JAK3 and KDR were measured by Invitrogen using Z'-LYTE® Method as briefly described in the following.
Test Compounds are screened in 1% DMSO (final) in the well. For 10 point titrations, 3-fold serial dilutions are conducted from the starting concentration. All ATP Solutions are diluted to a 4× working concentration in Kinase Buffer (50 mM HEPES pH 7.5, 0.01% BRIJ-35, 10 mM MgCl2, 1 mM EGTA). Peptide/Kinase Mixtures are diluted to a 2× working concentration in the appropriate Kinase Buffers as described below.
(v) Peptide/Kinase Mixtures for Measurement of BTK:
The 2×BTK/Tyr 01 mixture is prepared in 50 mM HEPES pH 7.5. 0.01% BRIJ-35, 10 mM MgCl2, 1 mM EGTA.
The mixture is then incubated for another 60-minute at room temperature for development reaction. Finally fluorescence is read by plate reader.
To determine IC50 of a compound against EGFR, EGFR mutant and other kinases, a series of concentrations of the compound were tested for the inhibition. […] The scale utilized in Table 4 is as follows: +++ less than 100 nM, ++ 100-500 nM and + greater than 500 nM.

Row | SMILES | inhibition at 0.0137 µM (EGFR (ErbB1) T790M L858R) [%] | IC50 (EGFR (ErbB1) T790M L858R) [µM] | IC50 (H3255 cells) [µM] | IC50 (A431 cells) [µM] | IC50 (H1975 cells) [µM] | inhibition at 0.041 µM (EGFR (ErbB1)) [%] | inhibition at 1 µM (EGFR (ErbB1) T790M L858R) [%] | inhibition at 1 µM (EGFR (ErbB1)) [%] | IC50 (HCC827 cells) [µM] | inhibition at 0.041 µM (BTK; compound at 0.041 μM, read-out: % inhibition against BTK) [%] | IC50 (BTK) [µM] | IC50 (EGFR (ErbB1)) [µM]
1 | C=CC(=O)Nc1cccc(-c2cccc3cnc(Nc4ccc(N5CCN(CC)CC5)cc4)nc23)c1 [Example C029, N-(3-(2-((4-(4-ethylpiperazin-1-yl)phenyl)amino)quinazolin-8-yl)phenyl)acrylamide] |  |  | > 0.5 | 0.1 to 0.5 | 0.1 to 0.5 |  | > 50 | > 50 | < 0.1 |  |  | 
2 | C=CC(=O)Nc1cccc(-c2cccc3cnc(Nc4cc(F)c(N5CCN(CCO)CC5)cc4F)nc23)c1 [Example C162, N-(3-(2-((2,5-difluoro-4-(4-(2-hydroxyethyl)piperazin-1-yl)phenyl)amino)quinazolin-8-yl)phenyl)acrylamide] |  |  | > 0.5 |  | 0.1 to 0.5 |  |  |  |  |  |  | 
3 | C=CC(=O)Nc1cccc(-c2cccc3cnc(Nc4ccc(OC5CCN(C)CC5F)cc4)nc23)c1 (centres unmarked) [Example C079, N-(3-(2-((4-((3-fluoro-1-methylpiperidin-4-yl)oxy)phenyl)amino)quinazolin-8-yl)phenyl)acrylamide] |  | < 0.1 | 0.1 to 0.5 | 0.1 to 0.5 | < 0.1 | < 50 |  |  |  |  | < 0.1 | 
4 | C=CC(=O)Nc1cccc(-c2cccc3cnc(Nc4ccc(N5CCN(C)CC5=O)cc4)nc23)c1 [Example C106, N-(3-(2-((4-(4-methyl-2-oxopiperazin-1-yl)phenyl)amino)quinazolin-8-yl)phenyl)acrylamide] |  | < 0.1 | 0.1 to 0.5 | < 0.1 | < 0.1 |  |  |  |  |  | < 0.1 | > 0.5
5 | c1ccc(-c2cccc3cnc(Nc4ccc(N5CCNCC5)cc4)nc23)cc1 [Example C030, 8-phenyl-N-(4-(piperazin-1-yl)phenyl)quinazolin-2-amine] |  |  |  |  | 0.1 to 0.5 |  | > 50 | > 50 | 0.1 to 0.5 |  |  | 
6 | C=CC(=O)Nc1cccc(-c2cccc3cnc(Nc4ccc(NC5CCN(C)CC5F)cc4)nc23)c1 (centres unmarked) [Example C105, N-(3-(2-((4-((3-fluoro-1-methylpiperidin-4-yl)amino)phenyl)amino)quinazolin-8-yl)phenyl)acrylamide] |  | < 0.1 | < 0.1 | 0.1 to 0.5 | < 0.1 | < 50 |  |  | < 0.1 |  | < 0.1 | < 0.1
7 | C=CC(=O)Nc1cccc(-c2cccc3cnc(Nc4ccc(OC5CCN(C)CC5)cc4F)nc23)c1 [Example C141, N-(3-(2-((2-fluoro-4-((1-methylpiperidin-4-yl)oxy)phenyl)amino)quinazolin-8-yl)phenyl)acrylamide] | > 50 | < 0.1 | 0.1 to 0.5 | 0.1 to 0.5 | < 0.1 | > 50 |  |  | < 0.1 |  |  | 
8 | Fc1ccc(Cl)cc1-c1cccc2cnc(Nc3ccc(N4CCNCC4)cc3)nc12 [Example C024, 8-(5-chloro-2-fluorophenyl)-N-(4-(piperazin-1-yl)phenyl)quinazolin-2-amine] |  |  |  |  | > 0.5 |  | > 50 |  | > 0.5 |  |  | 
9 | Fc1ccc(OCCN2CCOCC2)cc1-c1cccc2cnc(Nc3ccc(N4CCNCC4)cc3)nc12 [Example C028, 8-(2-fluoro-5-(2-morpholinoethoxy)phenyl)-N-(4-(piperazin-1-yl)phenyl)quinazolin-2-amine] |  |  |  |  | > 0.5 |  | > 50 |  | > 0.5 |  |  | 
10 | C=CC(=O)Nc1cccc(-c2cccc3cnc(Nc4ccc(N5CCN(CCOC)CC5)cc4)nc23)c1 [Example C152, N-(3-(2-((4-(4-(2-methoxyethyl)piperazin-1-yl)phenyl)amino)quinazolin-8-yl)phenyl)acrylamide] | > 50 |  | 0.1 to 0.5 | 0.1 to 0.5 | < 0.1 | < 50 |  |  |  |  |  | 
11 | C=CC(=O)Nc1cccc(-c2cccc3cnc(Nc4cc(F)c(N5CCN(CCOC)CC5)cc4F)nc23)c1 [Example C161, N-(3-(2-((2,5-difluoro-4-(4-(2-methoxyethyl)piperazin-1-yl)phenyl)amino)quinazolin-8-yl)phenyl)acrylamide] | < 50 |  | > 0.5 |  | 0.1 to 0.5 |  |  |  |  |  |  | 

Continued, in another order:

Row | inhibition at 0.0137 µM (EGFR (ErbB1) T790M L858R) [%] | IC50 (EGFR (ErbB1) T790M L858R) [µM] | IC50 (H3255 cells) [µM] | IC50 (A431 cells) [µM] | IC50 (H1975 cells) [µM] | inhibition at 0.041 µM (EGFR (ErbB1)) [%] | inhibition at 1 µM (EGFR (ErbB1) T790M L858R) [%] | inhibition at 1 µM (EGFR (ErbB1)) [%] | IC50 (HCC827 cells) [µM] | inhibition at 0.041 µM (BTK; compound at 0.041 μM, read-out: % inhibition against BTK) [%] | SMILES | IC50 (BTK) [µM] | IC50 (EGFR (ErbB1)) [µM]
12 | > 50 | < 0.1 | 0.1 to 0.5 | < 0.1 | < 0.1 | > 50 |  |  |  |  | C=CC(=O)Nc1cccc(-c2cccc3cnc(Nc4ccc(N[C@H]5CCN(C)C5)cc4)nc23)c1 [Example C127, (S)-N-(3-(2-((4-((1-methylpyrrolidin-3-yl)amino)phenyl)amino)quinazolin-8-yl)phenyl)acrylamide] |  | 
13 | > 50 | < 0.1 | 0.1 to 0.5 | < 0.1 | < 0.1 | > 50 |  |  |  |  | C=CC(=O)Nc1cccc(-c2cccc3cnc(Nc4ccc(NC5CCN(CCO)CC5)cc4)nc23)c1 [Example C139, N-(3-(2-((4-((1-(2-hydroxyethyl)piperidin-4-yl)amino)phenyl)amino)quinazolin-8-yl)phenyl)acrylamide] |  | 
14 | > 50 | < 0.1 | 0.1 to 0.5 | < 0.1 | < 0.1 | > 50 |  |  |  | > 50 | C=CC(=O)Nc1cccc(-c2cccc3cnc(Nc4ccc(NC5CCN(C)CC5)cc4)nc23)c1 [Example C118, N-(3-(2-((4-((1-methylpiperidin-4-yl)amino)phenyl)amino)quinazolin-8-yl)phenyl)acrylamide] |  | 
15 | > 50 | < 0.1 | > 0.5 | > 0.5 | < 0.1 | > 50 |  |  |  |  | C=CC(=O)Nc1cccc(-c2cccc3cnc(Nc4ccc(NC5CCN(C)CC5)cc4F)nc23)c1 [Example C140, N-(3-(2-((2-fluoro-4-((1-methylpiperidin-4-yl)amino)phenyl)amino)quinazolin-8-yl)phenyl)acrylamide] |  | 
16 | > 50 | < 0.1 | > 0.5 | 0.1 to 0.5 | < 0.1 | > 50 |  |  |  |  | C=CC(=O)Nc1cccc(-c2cccc3cnc(Nc4ccc(OC5CCN(CCO)CC5)cc4)nc23)c1 [Example C137, N-(3-(2-((4-((1-(2-hydroxyethyl)piperidin-4-yl)oxy)phenyl)amino)quinazolin-8-yl)phenyl)acrylamide] |  | 
17 |  |  |  | < 0.1 | < 0.1 | > 50 |  |  | < 0.1 |  | C=CC(=O)Nc1cccc(-c2c(CO)ccc3cnc(Nc4ccc(N5CCN(C)CC5)cc4)nc23)c1 [Example C037, N-(3-(7-(hydroxymethyl)-2-((4-(4-methylpiperazin-1-yl)phenyl)amino)quinazolin-8-yl)phenyl)acrylamide] |  | 
18 | > 50 | < 0.1 | > 0.5 | 0.1 to 0.5 | < 0.1 | < 50 |  |  | < 0.1 |  | C=CC(=O)Nc1cccc(-c2cccc3cnc(Nc4ccc(N5CCN(CC(C)(C)O)CC5)cc4)nc23)c1 [Example C145, N-(3-(2-((4-(4-(2-hydroxy-2-methylpropyl)piperazin-1-yl)phenyl)amino)quinazolin-8-yl)phenyl)acrylamide] |  | 
